Test results: paper PMC4536990, “Efficacy of the antimicrobial peptide TP4 against Helicobacter pylori infection: in vitro membrane perturbation via micellization and in vivo suppression of host immune responses in a mouse model” (Oncotarget, 2015)
Where a SMILES comes first, the peptide text is derived from it.

Assays:
[1] = system: New Zealand white rabbits; assay: Eye irritation test in rabbits (OECD 405); format: in vivo; conditions: for Abnormality iris grade / Chemosis grade / Conjunctivae Redness grade / Corneal opacity grade: OECD 405 grading
Protocol: (§1) Figure 11 TP4 toxicity safety evaluations in New Zealand albino rabbits and C3H/HeN mice (A) Eye irritation test: Ocular appearances of controls, and rabbits treated with TP4 or SDS for 7 days. […] (B) Dermal toxicity: appearances of the skin of mice treated with TP4 at 48 hr post-exposure.
(§2) Oral toxicity: Acute oral toxicity was assessed in C3H/HeN mice with 6 animals per group, by single oral administration of TP4 (125 mg/kg). After dose administration, the animals were kept under observation for a minimum of 48 hr. The mortality rate and clinical signs were recorded. Sub-acute oral toxicity was assessed by administering 600 μg dose/day for 14 days. During dose administration, the animals were observed every day for any signs of toxicity. After the treatment period, the animals were kept under observation for 14 days. The morbidity, mortality, and other clinical signs were recorded and assessed. Dermal Toxicity was assessed by topical application of TP4 at 10 times the effective dose to skin at the dorsal side of mice. After administration, the animals were kept under observation for a minimum of 48 h. Clinical signs were noted if the animals were in the morbid stage or presented with any abnormalities. Eye irritation test in New Zealand white rabbits: Healthy young adult rabbits were used in the experiment. Eyes were treated with TP4, PBS (vehicle control), or 0.1% SDS (positive control). A repeated dose of 1 mg/kg was administered every day for 7 days. During the treatment period, the eyes were examined on days 1, 3, 5, and 7, and allowed to recover until day 14. Clinical signs were recorded during the test period, and grades were assigned for ocular reactions observed during each examination. All procedures, care, and handling of rabbits were approved by the laboratory animal ethics committee of National Taiwan Ocean University.

C3H/HeN mice [2] = assay: Dermal toxicity; format: in vivo
Protocol: as §1, §2

[3] = cited from earlier work
Source text: (§3) A more complete understanding of how these short amphipathic cationic AMPs bring about bacterial cell death and host immunomodulation is needed for further optimization and development for clinical applications.

[4] = system: human and mouse cell lines; conditions: cited from earlier work
Source text: as §3

C3H/HeN mice [5] = assay: Sub-acute oral toxicity; format: in vivo; conditions: three-fold therapeutic dose (600 μg dose/day) orally for 14 days, observed days 1 to 28, n=6
Protocol: Sub-acute oral toxicity: Three-fold therapeutic doses were orally administered to mice for 14 days.
as §2, with “A repeated dose of 1 mg/kg was administered every day for 7 days. During the treatment period, the eyes were examined on days 1, 3, 5, and 7, and allowed to recover until day 14.” left out, “All procedures, care, and handling of rabbits were approved by the laboratory animal ethics committee of National Taiwan Ocean University.” left out

H. pylori [6] = format: cell-based, Helicobacter pylori; conditions: 24 h
Protocol: Frozen cultures were streaked onto BHI agar with 10% sheep blood, and incubated for 24 hr under microaerophilic conditions. H. pylori cells undergoing exponential growth were suspended in sterile phosphate-buffered saline (PBS), and adjusted to 0.05 OD using BHI broth; the resulting inoculum was dispensed onto a microtitre plate. Peptide TP4 was prepared at various concentrations (0.04 to 50 μg mL^−1) using PBS. Antibiotic resistant clinical isolate CI-HC-028 and three reference strains were used for susceptibility testing. All plates were incubated under microaerophilic conditions at 37°C overnight. The MIC was defined as the lowest concentration of the drug at which there was no visible growth. For quality control and comparative analyses, we examined the susceptibility of all four H. pylori strains to the antibiotics amoxicillin, clarithromycin, and metronidazole (Sigma Chemical Co., St. Louis, MO).

C3H/HeN mice [7] = assay: Acute oral toxicity; format: in vivo; conditions: single oral dose 125 mg/kg, n=6, observed 24 hours
Protocol: as §2, with “After dose administration, the animals were kept under observation for a minimum of 48 hr.” left out, “All procedures, care, and handling of rabbits were approved by the laboratory animal ethics committee of National Taiwan Ocean University.” left out

H. pylori [8] = assay: Transmission electron microscopy of H. pylori morphology; format: cell-based, Helicobacter pylori; conditions: 1x MIC, 2 hr
Source text: Figure 4 Electron micrographs reveal that TP4 causes membrane disruption in H. pylori via micellization Approximately 6 × 10^7 H. pylori cells were exposed to PBS (A, D), 1x MIC amoxicillin (B, E), or 1x MIC TP4 peptide (C, F) for 2 hr. Next, thin sections were examined under a transmission electron microscope (TEM) at low (1,100X; A-C) or high (5,500X; D-F) magnification. […] (E) Amoxicillin-treated cells retained intact membranes, but the periplasmic space was swollen in some locations.
Transmission electron microscopy (TEM) was used to examine the mechanism of TP4 action on H. pylori, overall cell morphology, TP4 translocation into H. pylori, and binding of TP4 to internal constituents. H. pylori overnight cultures from BHI-blood agar plates were collected, and 0.1 OD inocula were incubated with TP4, Amoxicillin, and/or PBS (PBS only: negative control). Following drug exposure, H. pylori cells were collected and successively washed twice in PBS by centrifugation and resuspension. The cells were then fixed and processed for TEM using previously described methods. […] Each grid was examined under the same settings. Images were recorded with a 4MP SPOT Insight charge-coupled-device (CCD) camera.

H. pylori outer membrane = assay: NPN uptake membrane perturbation assay; format: cell-based, Helicobacter pylori; conditions: 6 h incubation, 22μg mL−1 NPN
Protocol: Figure 3 TP4 induces membrane permeation of H. pylori TP4 rapidly permeabilizes the H. pylori outer membrane in a dose-dependent manner. Membrane permeabilization was examined by measuring fluorescence due to uptake of 1-N-phenyl-naphthylamine (NPN). Approximately 5 × 10^6 H. pylori (Hp) cells were cultured in the presence of TP4 or amoxicillin for 6 h. Bacterial cells alone, or cells incubated with NPN and control peptide, were used as negative controls. NPN fluorescence intensity was recorded as a correlate of membrane permeation. (B) Zeta-potential (ζ) of H. pylori in the presence/absence of TP4. Striped bars: H. pylori grown in blood agar plates; white bar: liquid culture. The data shown are means ± SEM of two independent experiments
The NPN membrane permeation assay was performed as described previously. Briefly, a starter culture of H. pylori was grown overnight to 0.05 OD. The adjusted culture was aliquoted into different tubes with or without TP4/amoxicillin, and incubated at 37°C for 360 minutes under microaerophilic conditions. […] NPN fluorescence intensity was recorded using a Synergy HT (BioTek, U.S.A) fluorescence ELISA reader, and correlated to membrane potential and permeation. Experiments were performed in triplicate, and the results are expressed as means with standard error.

H. pylori CI-HC-028 = assay: Time-dependent killing of multidrug resistant clinical isolate; format: cell-based, Helicobacter pylori; conditions: CI-HC-028, at MIC
Protocol: Control peptide and H. pylori alone were used as controls. The cultures were monitored for 24 h, and aliquots were taken at 1, 3, 6, 12, and 24 h for bacterial enumeration. The data are means ± SEM. […] Approximately, 1 × 10^5 cells were incubated for 1 h, and then incubated with the MIC of TP4, amoxicillin, metronidazole, or clarithromycin (AMOX, METZ, and CLRN, respectively). The cultures were monitored for 24 h, and aliquots taken at 1, 3, 6, 12, and 24 h to determine surviving c.f.u. The data are means ± SEM
Overnight cultures of H. pylori were scraped and adjusted to OD 0.05, and 1 ml/tube inocula were prepared with BHI broth. Solutions of TP4 or clinical antibiotics were prepared with concentrations corresponding to their respective MIC, and PBS was used as a control. The tubes were incubated without shaking at 37°C under microaerophilic conditions, and sample aliquots were taken at 0, 1, 3, 6, 12, and 24 hr. The samples were serially diluted, and appropriate dilutions were plated in triplicate onto blood agar plates for bacterial counts. The results were expressed as mean log (c.f.u. mL^−1) with standard error.

H. pylori [9] = assay: Induction of drug resistance by sub-inhibitory passaging (in vitro / in vivo passage); format: cell-based, Helicobacter pylori; conditions: sub-inhibitory doses, 10 serial passages
Protocol: (§4) Animals were sacrificed at each passage, and the MIC of TP4, amoxicillin, metronidazole, and clarithromycin were recorded for 10 serial passages. Passage points in the curves are means ± SEM. (MICs: standard MIC value; MICp: passage-induced MIC). (B) In vitro dose-OD fall kinetics were examined for TP4 alone and in combination with amoxicillin, metronidazole, or clarithromycin. […] The data shown are means ± SEM of two independent experiments
The drug resistance of bacteria to TP4 and clinical antibiotics was determined by in vitro culturing of H. pylori in sub-inhibitory concentrations of TP4 and antibiotics, followed by repeated in vivo passaging. H. pylori was administered to C3H/HeN mice and allowed to colonize the gut; subsequently pure colonies of H. pylori were isolated on EYE selective media. This step was repeated for 10 passages. During each passage, the MICs of TP4 and the conventional antibiotics were determined. All procedures, care, and handling of mice were approved by the laboratory animal ethics committee of National Taiwan Ocean University.

[10] = system: metronidazole- and clarithromycin-resistant H. pylori strains; assay: Synergy of TP4 with antibiotics, in vitro dose-OD fall kinetics; format: cell-based, Helicobacter pylori; conditions: TP4 plus antibiotic
Protocol: as §4
Combination therapy often enhances antibiotic efficacy and mitigates the frequency at which drug resistance emerges. To determine the suitability of TP4 for combination therapy, we examined in vitro dose-OD fall kinetics of TP4 in combination with AMOX, CLRN, or METZ antibiotics; these three antibiotics are traditionally used as the first line of defense against H. pylori.

With CC[C@H](C)[C@H](NC(=O)[C@H](C)NC(=O)[C@H](CCCCN)NC(=O)CNC(=O)[C@H](C)NC(=O)[C@H](CO)NC(=O)[C@H](Cc1ccccc1)NC(=O)[C@H](CC(C)C)NC(=O)CNC(=O)CNC(=O)[C@@H](NC(=O)[C@@H](NC(=O)[C@H](Cc1c[nH]cn1)NC(=O)[C@H](Cc1c[nH]cn1)NC(=O)[C@@H](NC(=O)[C@@H](N)Cc1ccccc1)[C@@H](C)CC)[C@@H](C)CC)[C@@H](C)CC)C(=O)N[C@@H](Cc1c[nH]cn1)C(=O)N[C@@H](CCCNC(=N)N)C(=O)N[C@@H](CC(C)C)C(=O)N[C@H](C(=O)N[C@@H](CCCNC(=N)N)C(=O)N[C@@H](CCCNC(=N)N)C(=O)N[C@@H](CCCNC(=N)N)C(=O)N[C@@H](CCCNC(=N)N)C(=O)N[C@@H](CCCNC(=N)N)C(N)=O)[C@@H](C)CC [TP4] (H-FIHHIIGGLFSAGKAIHRLIRRRRR-NH2) the Abnormality iris grade ([1]; Day 1) was 0, the Chemosis grade ([1]; Day 1) was 0 and the “Conjunctivae Redness grade” value ([1]; Day 1) was 0. It also gave a Corneal opacity grade ([1]; Day 1, rabbit eye, daily for 7 days (TP4 1 mg/kg; SDS 0.1%)) of 0, an Abnormality iris grade ([1]; Day 3) of 0 and a Chemosis grade ([1]; Day 3) of 0.1. The “Conjunctivae Redness grade” value ([1]; Day 3) was 0, the Corneal opacity grade ([1]; Day 3) was 0 and the Abnormality iris grade ([1]; Day 5) was 0. For the same molecule, the Chemosis grade ([1]; Day 5) was 0.1, the “Conjunctivae Redness grade” value ([1]; Day 5) was 0.5 and the Corneal opacity grade ([1]; Day 5) was 0.1. For the same molecule, the Abnormality iris grade ([1]; Day 7) was 0, the Chemosis grade ([1]; Day 7) was 0.1 and the “Conjunctivae Redness grade” value ([1]; Day 7) was 0. The Corneal opacity grade ([1]; Day 7) was 0.3, the Abnormality iris grade ([1]; Recovery, Day 14) was 0 and the Chemosis grade ([1]; Recovery, Day 14) was 0. The “Conjunctivae Redness grade” value ([1]; Recovery, Day 14) was 0, the Corneal opacity grade ([1]; Recovery, Day 14) was 0 and the ocular appearance ([1]; rabbits treated for 7 days, observed daily) was “no ocular lesions were detected”. The “skin appearance, lesions” value (C3H/HeN mice [2]; 48 hr post-exposure, after residue removal, 125 mg/kg TP4 or 20% SDS, n=12 per group) was “No obvious lesions”, the “dermal toxicity, mortality or damaging effects” value (C3H/HeN mice [2]; topical, 10 times the effective dose, 14-day observation) was “did not result in mortality or damaging effects” and the hemolytic activity [3] was “low hemolytic activity”. The “toxicity against cell lines” value [4] was “low toxicity against human and mouse cell lines”, the “sub-acute oral toxicity, clinical signs” value (C3H/HeN mice [5]) was “did not induce clinical complications in mice” and the MIC (H. pylori [6]) was 1.5 to 3 µg/mL. For the same molecule, the “acute oral toxicity, clinical signs and vital organs” value (C3H/HeN mice [7]) was “did not exhibit any abnormal clinical signs”.

With CC1(C)S[C@@H]2[C@H](NC(=O)[C@H](N)c3ccc(O)cc3)C(=O)N2[C@H]1C(=O)O [amoxicillin] the “membrane morphology by TEM” value (H. pylori [8]) was “loose outer membranes”, the “NPN fluorescence intensity (membrane permeabilization)” value (H. pylori outer membrane) was “slight increase in fluorescence intensity at higher doses” and the “killing within 24 hr” value (H. pylori CI-HC-028) was 90%. For the same molecule, the “drug resistance index MICp/MICs” value (H. pylori [9]) was “increased slightly after passage 6, and remained constant thereafter” and the “reduction of the MIC of the antibiotic in combination with TP4” value [10] was “one-fourth”.
